Source: ChEMBL document CHEMBL1136897, “Predictive models of Cannabinoid-1 receptor antagonists derived from diverse classes” (Bioorg Med Chem Lett, 2009)
pIC50: −log10 of the molar value.

What follows are compounds tested against Cannabinoid receptor 1 (Homo sapiens, UniProt P21554).
Format: functional

Chain of Cannabinoid receptor 1 (P21554 whole entry): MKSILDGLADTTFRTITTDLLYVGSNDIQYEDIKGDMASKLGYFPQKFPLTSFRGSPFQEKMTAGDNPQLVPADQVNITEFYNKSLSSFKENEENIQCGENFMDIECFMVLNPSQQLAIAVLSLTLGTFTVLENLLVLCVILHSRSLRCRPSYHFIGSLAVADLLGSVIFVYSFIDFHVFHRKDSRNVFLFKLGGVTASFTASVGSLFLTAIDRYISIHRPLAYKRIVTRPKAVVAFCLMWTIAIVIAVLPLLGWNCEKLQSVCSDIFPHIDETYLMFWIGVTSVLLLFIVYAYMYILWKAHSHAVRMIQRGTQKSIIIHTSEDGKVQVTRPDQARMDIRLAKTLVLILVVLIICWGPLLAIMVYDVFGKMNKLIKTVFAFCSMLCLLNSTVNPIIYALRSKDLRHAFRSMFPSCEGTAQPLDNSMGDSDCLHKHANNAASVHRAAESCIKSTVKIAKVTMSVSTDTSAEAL

Row | pIC50 | Structure (SMILES)
1 | 6.95 | CC(=O)Nc1cc(=O)n(C)c2nc(-c3ccc(Cl)cc3Cl)c(-c3ccc(Cl)cc3)cc12
2 | 7.45 | CC(=O)Nc1c(C#N)c(=O)n(C)c2nc(-c3ccc(Cl)cc3Cl)c(-c3ccc(Cl)cc3)cc12
3 | 8.82 | CC(NC(=O)C(C)(C)Oc1cccc(Cl)c1)C(Cc1ccc(Cl)cc1)c1ccccc1 (stereo not drawn)
4 | 5.18 | CC(C)NC(=O)N1CCN(C(c2ccc(Cl)cc2)c2ccccc2C(F)(F)F)CC1 (stereo not drawn)
5 | 7.68 | CC(NS(=O)(=O)Cc1ccccc1)C(Cc1ccc(Cl)cc1)c1cccc(C#N)c1 (stereo not drawn)
6 | 5.77 | CC(NS(=O)(=O)C(C)(C)C)C(Cc1ccc(Cl)cc1)c1cccc(C#N)c1 (stereo not drawn)
7 | 5.69 | CC(NS(C)(=O)=O)C(Cc1ccc(Cl)cc1)c1cccc(C#N)c1 (stereo not drawn)
8 | 6.40 | CC(C)NC(=O)N1CCN(C(c2ccc(Cl)cc2)c2ccccc2Cl)CC1 (stereo not drawn)
9 | 5.66 | Cc1ccccc1C(c1ccc(Cl)cc1)N1CCN(C(=O)NC(C)C)CC1 (stereo not drawn)
10 | 8.95 | CC(NC(=O)C(C)(C)Oc1cc(F)cc(F)c1)C(Cc1ccc(Cl)cc1)c1ccccc1 (stereo not drawn)
11 | 6.11 | CC(C)NC(=O)N1CCN(C(c2ccc(Br)cc2)c2ccccc2Cl)CC1 (stereo not drawn)
12 | 5.46 | O=C(NCC1CCC1)N1CCN(C(c2ccc(Cl)cc2)c2ccc(Cl)cc2)CC1
13 | 8.88 | CC(NC(=O)C(C)(C)Oc1ccc(Cl)cn1)C(Cc1ccc(Cl)cc1)c1ccccc1 (stereo not drawn)
